Data published in the kinase profiling compilation of Christmann-Franck et al. (2016).

Tests used:
Experiment in all cases: radiometric filter-binding kinase assay, Kinase HotSpot
Conditions in all cases: compound 0.5 µM; ATP 10 µM
AKT2 (human) = AKT2 (human) (UniProt P31751)
BRSK2 (human) = BRSK2 (human) (UniProt Q8IWQ3)
CDK1 CCNA2 (human) = CDK1 CCNA2 (human) (UniProt P06493+P20248)
CHUK (human) = CHUK (human) (UniProt O15111)
CLK4 (human) = CLK4 (human) (UniProt Q9HAZ1)
CSNK1G3 (human) = CSNK1G3 (human) (UniProt Q9Y6M4)
CSNK2A2 (human) = CSNK2A2 (human) (UniProt P19784)
DAPK1 (human) = DAPK1 (human) (UniProt P53355)
DDR2 (human) = DDR2 (human) (UniProt Q16832)
DMPK (human) = DMPK (human) (UniProt Q09013)
DYRK3 (human) = DYRK3 (human) (UniProt O43781)
Sequence of DYRK3 (human) (O43781 whole entry, looked up): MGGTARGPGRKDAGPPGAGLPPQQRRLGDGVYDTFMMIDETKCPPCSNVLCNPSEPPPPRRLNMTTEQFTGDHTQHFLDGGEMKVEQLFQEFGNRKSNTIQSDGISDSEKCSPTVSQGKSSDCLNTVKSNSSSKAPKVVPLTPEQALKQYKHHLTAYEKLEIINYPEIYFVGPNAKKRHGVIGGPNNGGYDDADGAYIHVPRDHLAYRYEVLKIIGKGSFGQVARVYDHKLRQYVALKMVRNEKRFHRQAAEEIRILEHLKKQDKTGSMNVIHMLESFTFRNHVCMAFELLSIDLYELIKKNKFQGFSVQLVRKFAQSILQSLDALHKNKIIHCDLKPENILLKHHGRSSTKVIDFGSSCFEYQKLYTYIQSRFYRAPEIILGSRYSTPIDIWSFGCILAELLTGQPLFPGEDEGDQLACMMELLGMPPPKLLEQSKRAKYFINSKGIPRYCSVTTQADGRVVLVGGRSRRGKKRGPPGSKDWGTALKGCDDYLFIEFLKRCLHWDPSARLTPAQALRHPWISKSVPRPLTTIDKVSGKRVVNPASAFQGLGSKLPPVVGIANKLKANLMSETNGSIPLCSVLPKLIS

EGFR (human) = EGFR (human) (UniProt P00533)
EPHA1 (human) = EPHA1 (human) (UniProt P21709)
Sequence of EPHA1 (human) (P21709 whole entry, looked up): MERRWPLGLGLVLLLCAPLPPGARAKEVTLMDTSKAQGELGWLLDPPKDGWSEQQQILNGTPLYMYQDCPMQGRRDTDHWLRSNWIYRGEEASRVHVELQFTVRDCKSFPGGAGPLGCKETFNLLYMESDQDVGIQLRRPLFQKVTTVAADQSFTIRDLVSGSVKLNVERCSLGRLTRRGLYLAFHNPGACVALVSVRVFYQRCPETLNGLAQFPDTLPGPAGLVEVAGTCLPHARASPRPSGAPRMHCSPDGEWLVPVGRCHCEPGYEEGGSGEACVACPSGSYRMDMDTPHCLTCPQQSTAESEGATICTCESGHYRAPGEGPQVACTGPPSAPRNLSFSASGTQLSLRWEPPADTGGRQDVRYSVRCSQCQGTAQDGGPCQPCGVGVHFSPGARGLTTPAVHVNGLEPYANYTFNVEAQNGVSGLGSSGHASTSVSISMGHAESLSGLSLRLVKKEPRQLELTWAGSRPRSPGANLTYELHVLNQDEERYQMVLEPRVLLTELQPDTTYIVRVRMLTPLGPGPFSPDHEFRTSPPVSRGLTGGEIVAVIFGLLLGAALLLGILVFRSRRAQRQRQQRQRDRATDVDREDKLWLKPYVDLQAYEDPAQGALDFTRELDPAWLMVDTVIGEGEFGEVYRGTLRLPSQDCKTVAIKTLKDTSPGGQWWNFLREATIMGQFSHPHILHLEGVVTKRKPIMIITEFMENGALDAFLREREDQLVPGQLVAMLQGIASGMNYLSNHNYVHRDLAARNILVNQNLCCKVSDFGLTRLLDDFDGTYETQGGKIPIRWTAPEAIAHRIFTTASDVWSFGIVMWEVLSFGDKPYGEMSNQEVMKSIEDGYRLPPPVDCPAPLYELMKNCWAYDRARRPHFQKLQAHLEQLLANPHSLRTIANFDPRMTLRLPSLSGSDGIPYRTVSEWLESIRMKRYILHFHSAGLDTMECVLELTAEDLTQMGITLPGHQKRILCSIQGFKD

EPHA3 (human) = EPHA3 (human) (UniProt P29320)
EPHB4 (human) = EPHB4 (human) (UniProt P54760)
GSK3B (human) = GSK3B (human) (UniProt P49841)
HIPK2 (human) = HIPK2 (human) (UniProt Q9H2X6)
IKBKB (human) = IKBKB (human) (UniProt O14920)
IKBKE (human) = IKBKE (human) (UniProt Q14164)
KIT (human) = KIT (human) (UniProt P10721)
Sequence of KIT (human) (P10721 whole entry, looked up): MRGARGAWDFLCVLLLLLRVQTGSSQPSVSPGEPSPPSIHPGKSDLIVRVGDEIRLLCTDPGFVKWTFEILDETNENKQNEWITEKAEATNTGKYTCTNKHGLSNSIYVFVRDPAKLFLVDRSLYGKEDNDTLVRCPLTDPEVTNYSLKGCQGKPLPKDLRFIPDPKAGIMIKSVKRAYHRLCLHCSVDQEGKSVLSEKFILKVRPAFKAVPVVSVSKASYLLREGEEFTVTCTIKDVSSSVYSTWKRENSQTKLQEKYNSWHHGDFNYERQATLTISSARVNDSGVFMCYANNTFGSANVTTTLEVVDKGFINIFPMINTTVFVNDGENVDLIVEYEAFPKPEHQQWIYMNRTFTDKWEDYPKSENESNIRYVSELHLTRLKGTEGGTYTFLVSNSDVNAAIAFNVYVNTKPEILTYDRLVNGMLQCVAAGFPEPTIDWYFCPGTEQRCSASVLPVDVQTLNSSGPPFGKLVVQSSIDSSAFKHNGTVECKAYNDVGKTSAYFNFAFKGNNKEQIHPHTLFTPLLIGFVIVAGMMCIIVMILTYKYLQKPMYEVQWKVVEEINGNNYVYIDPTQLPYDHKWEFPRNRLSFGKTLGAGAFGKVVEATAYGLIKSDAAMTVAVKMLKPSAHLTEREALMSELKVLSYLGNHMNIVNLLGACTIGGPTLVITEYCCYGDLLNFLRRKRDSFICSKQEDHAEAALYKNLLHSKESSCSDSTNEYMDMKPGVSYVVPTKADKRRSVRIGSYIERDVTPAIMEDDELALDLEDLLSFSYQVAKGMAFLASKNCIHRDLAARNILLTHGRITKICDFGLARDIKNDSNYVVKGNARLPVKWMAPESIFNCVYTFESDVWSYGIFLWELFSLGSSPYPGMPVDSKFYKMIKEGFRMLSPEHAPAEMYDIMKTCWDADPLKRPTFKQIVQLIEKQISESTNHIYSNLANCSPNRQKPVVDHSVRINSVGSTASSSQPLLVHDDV

MAP3K10 (human) = MAP3K10 (human) (UniProt Q02779)
Sequence of MAP3K10 (human) (Q02779 whole entry, looked up): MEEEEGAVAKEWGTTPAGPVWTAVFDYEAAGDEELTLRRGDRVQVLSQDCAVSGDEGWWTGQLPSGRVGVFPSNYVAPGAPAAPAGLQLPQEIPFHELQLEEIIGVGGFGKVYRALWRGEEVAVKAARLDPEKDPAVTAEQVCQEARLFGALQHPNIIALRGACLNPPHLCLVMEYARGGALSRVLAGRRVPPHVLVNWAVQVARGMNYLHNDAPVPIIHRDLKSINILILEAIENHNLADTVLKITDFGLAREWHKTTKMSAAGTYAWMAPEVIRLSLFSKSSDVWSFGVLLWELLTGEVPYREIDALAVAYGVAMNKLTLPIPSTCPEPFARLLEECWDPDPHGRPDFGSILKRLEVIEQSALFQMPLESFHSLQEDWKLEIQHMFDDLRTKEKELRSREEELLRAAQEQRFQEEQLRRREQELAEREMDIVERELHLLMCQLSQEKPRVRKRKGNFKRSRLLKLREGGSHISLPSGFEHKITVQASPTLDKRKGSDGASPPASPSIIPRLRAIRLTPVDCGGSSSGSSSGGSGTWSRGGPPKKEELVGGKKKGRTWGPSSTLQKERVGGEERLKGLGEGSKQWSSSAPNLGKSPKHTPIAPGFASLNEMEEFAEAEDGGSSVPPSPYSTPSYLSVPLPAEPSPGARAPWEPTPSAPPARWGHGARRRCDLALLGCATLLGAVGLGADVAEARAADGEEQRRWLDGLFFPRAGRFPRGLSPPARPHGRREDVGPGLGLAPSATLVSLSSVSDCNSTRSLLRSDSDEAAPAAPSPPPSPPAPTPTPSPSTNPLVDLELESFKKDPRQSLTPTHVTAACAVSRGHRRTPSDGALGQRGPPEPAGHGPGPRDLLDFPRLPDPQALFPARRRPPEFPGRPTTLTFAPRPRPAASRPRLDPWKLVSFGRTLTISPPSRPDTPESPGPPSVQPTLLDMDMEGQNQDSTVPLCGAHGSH

MAPK9 (human) = MAPK9 (human) (UniProt P45984)
MAPKAPK2 (human) = MAPKAPK2 (human) (UniProt P49137)
MARK4 (human) = MARK4 (human) (UniProt Q96L34)
MERTK (human) = MERTK (human) (UniProt Q12866)
MET (human) = MET (human) (UniProt P08581)
MST1R (human) = MST1R (human) (UniProt Q04912)
NEK11 (human) = NEK11 (human) (UniProt Q8NG66)
NEK4 (human) = NEK4 (human) (UniProt P51957)
NTRK1 (human) = NTRK1 (human) (UniProt P04629)
PAK1 (human) = PAK1 (human) (UniProt Q13153)
PAK2 (human) = PAK2 (human) (UniProt Q13177)
Sequence of PAK2 (human) (Q13177 whole entry, looked up): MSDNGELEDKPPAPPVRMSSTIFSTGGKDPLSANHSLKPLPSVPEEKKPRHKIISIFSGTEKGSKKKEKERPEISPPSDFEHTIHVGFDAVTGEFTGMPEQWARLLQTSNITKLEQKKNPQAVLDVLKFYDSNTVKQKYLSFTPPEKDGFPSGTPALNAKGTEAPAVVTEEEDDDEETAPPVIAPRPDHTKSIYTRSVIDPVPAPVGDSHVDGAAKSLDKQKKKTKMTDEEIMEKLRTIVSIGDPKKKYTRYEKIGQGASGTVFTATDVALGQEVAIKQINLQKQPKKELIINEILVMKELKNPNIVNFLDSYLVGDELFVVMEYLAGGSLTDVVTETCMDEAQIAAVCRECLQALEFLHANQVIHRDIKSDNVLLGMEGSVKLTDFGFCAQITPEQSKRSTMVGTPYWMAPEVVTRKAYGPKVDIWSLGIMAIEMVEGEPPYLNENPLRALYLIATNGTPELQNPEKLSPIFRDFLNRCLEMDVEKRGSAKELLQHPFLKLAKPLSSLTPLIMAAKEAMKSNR

PAK6 (human) = PAK6 (human) (UniProt Q9NQU5)
RAF1 (human) = RAF1 (human) (UniProt P04049)
ROCK1 (human) = ROCK1 (human) (UniProt Q13464)
SGK2 (human) = SGK2 (human) (UniProt Q9HBY8)
SYK (human) = SYK (human) (UniProt P43405)
TEK (human) = TEK (human) (UniProt Q02763)
TGFBR1 (human) = TGFBR1 (human) (UniProt P36897)
[1] = target: TYK2 JH1 catalytic (human) (UniProt P29597)
WNK3 (human) = WNK3 (human) (UniProt Q9BYP7)
ZAP70 (human) = ZAP70 (human) (UniProt P43403)

Sequence of BRSK2 (human) (Q8IWQ3 whole entry, looked up): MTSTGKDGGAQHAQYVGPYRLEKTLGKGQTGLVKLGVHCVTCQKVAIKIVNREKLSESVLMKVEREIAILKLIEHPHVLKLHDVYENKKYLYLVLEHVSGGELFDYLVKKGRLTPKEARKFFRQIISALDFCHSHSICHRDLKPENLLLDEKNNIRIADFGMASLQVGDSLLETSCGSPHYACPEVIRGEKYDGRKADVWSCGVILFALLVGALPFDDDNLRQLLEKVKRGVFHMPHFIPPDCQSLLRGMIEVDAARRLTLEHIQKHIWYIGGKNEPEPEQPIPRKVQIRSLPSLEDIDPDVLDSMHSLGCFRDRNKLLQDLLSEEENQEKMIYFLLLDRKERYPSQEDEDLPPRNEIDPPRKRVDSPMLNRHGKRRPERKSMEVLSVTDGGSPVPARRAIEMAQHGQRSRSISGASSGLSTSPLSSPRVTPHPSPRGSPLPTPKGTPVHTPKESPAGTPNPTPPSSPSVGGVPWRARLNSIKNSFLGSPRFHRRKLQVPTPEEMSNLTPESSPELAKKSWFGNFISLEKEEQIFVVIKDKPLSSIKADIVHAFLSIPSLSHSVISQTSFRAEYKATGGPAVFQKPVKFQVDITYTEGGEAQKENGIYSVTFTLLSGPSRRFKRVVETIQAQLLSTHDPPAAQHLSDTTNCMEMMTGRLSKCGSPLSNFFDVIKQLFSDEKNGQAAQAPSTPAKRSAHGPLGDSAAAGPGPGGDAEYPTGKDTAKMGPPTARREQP

O=C1NC(=O)C(c2cn(CCCn3ccnc3)c3ccccc23)=C1Nc1ccccc1
residual activity (AKT2 (human)): 92.3%
residual activity (BRSK2 (human)): 93.6%
residual activity (CDK1 CCNA2 (human)): 88.9%
residual activity (CHUK (human)): 105%
residual activity (CLK4 (human)): 38.9%
residual activity (CSNK1G3 (human)): 110%
residual activity (CSNK2A2 (human)): 87.6%
residual activity (DAPK1 (human)): 99.2%
residual activity (DDR2 (human)): 95.6%
residual activity (DMPK (human)): 104%
residual activity (DYRK3 (human)): 103%
residual activity (EGFR (human)): 95.1%
residual activity (EPHA1 (human)): 101%
residual activity (EPHA3 (human)): 102%
residual activity (EPHB4 (human)): 87.9%
residual activity (GSK3B (human)): 14.2%
residual activity (HIPK2 (human)): 87.6%
residual activity (IKBKB (human)): 110%
residual activity (IKBKE (human)): 87%
residual activity (KIT (human)): 90.2%
residual activity (MAP3K10 (human)): 34.5%
residual activity (MAPK9 (human)): 101%
residual activity (MAPKAPK2 (human)): 102%
residual activity (MARK4 (human)): 92.6%
residual activity (MERTK (human)): 86.1%
residual activity (MET (human)): 100%
residual activity (MST1R (human)): 93.5%
residual activity (NEK11 (human)): 75.6%
residual activity (NEK4 (human)): 94.9%
residual activity (NTRK1 (human)): 104%
residual activity (PAK1 (human)): 92.9%
residual activity (PAK2 (human)): 88.5%
residual activity (PAK6 (human)): 105%
residual activity (RAF1 (human)): 105%
residual activity (ROCK1 (human)): 99.2%
residual activity (SGK2 (human)): 82.4%
residual activity (SYK (human)): 99.9%
residual activity (TEK (human)): 92.3%
residual activity (TGFBR1 (human)): 101%
residual activity [1]: 83.4%
residual activity (WNK3 (human)): 100%
residual activity (ZAP70 (human)): 104%

O=C1NC(=O)c2c1c1c3ccccc3n3c1c1c2c2ccccc2n1C1CCC3O1
residual activity (AKT2 (human)): 48.5%
residual activity (BRSK2 (human)): 13.6%
residual activity (CDK1 CCNA2 (human)): 61.7%
residual activity (CHUK (human)): 106%
residual activity (CLK4 (human)): 20.3%
residual activity (CSNK1G3 (human)): 108%
residual activity (CSNK2A2 (human)): 4.47%
residual activity (DAPK1 (human)): 32.7%
residual activity (DDR2 (human)): 80.1%
residual activity (DMPK (human)): 98.8%
residual activity (DYRK3 (human)): 16.6%
residual activity (EGFR (human)): 78.3%
residual activity (EPHA1 (human)): 90.1%
residual activity (EPHA3 (human)): 96.5%
residual activity (EPHB4 (human)): 75.4%
residual activity (GSK3B (human)): 4.6%
residual activity (HIPK2 (human)): 32.6%
residual activity (IKBKB (human)): 97.8%
residual activity (IKBKE (human)): 23.9%
residual activity (KIT (human)): 60.8%
residual activity (MAP3K10 (human)): 2.66%
residual activity (MAPK9 (human)): 96.1%
residual activity (MAPKAPK2 (human)): 99.2%
residual activity (MARK4 (human)): 5.31%
residual activity (MERTK (human)): 13.6%
residual activity (MET (human)): 76.9%
residual activity (MST1R (human)): 87.7%
residual activity (NEK11 (human)): 60.6%
residual activity (NEK4 (human)): 22%
residual activity (NTRK1 (human)): 4.98%
residual activity (PAK1 (human)): 23.6%
residual activity (PAK2 (human)): 43.9%
residual activity (PAK6 (human)): 85.4%
residual activity (RAF1 (human)): 121%
residual activity (ROCK1 (human)): 88.7%
residual activity (SGK2 (human)): 18.6%
residual activity (SYK (human)): 15.8%
residual activity (TEK (human)): 94.1%
residual activity (TGFBR1 (human)): 110%
residual activity [1]: 4.32%
residual activity (WNK3 (human)): 86%
residual activity (ZAP70 (human)): 88.4%

Nc1ccc2ncnc(NCCc3ccc(Oc4ccccc4)cc3)c2c1
residual activity (AKT2 (human)): 101%
residual activity (BRSK2 (human)): 102%
residual activity (CDK1 CCNA2 (human)): 98.9%
residual activity (CHUK (human)): 101%
residual activity (CLK4 (human)): 94.6%
residual activity (CSNK1G3 (human)): 96.8%
residual activity (CSNK2A2 (human)): 103%
residual activity (DAPK1 (human)): 110%
residual activity (DDR2 (human)): 96.8%
residual activity (DMPK (human)): 94.2%
residual activity (DYRK3 (human)): 89.6%
residual activity (EGFR (human)): 112%
residual activity (EPHA1 (human)): 86.6%
residual activity (EPHA3 (human)): 102%
residual activity (EPHB4 (human)): 104%
residual activity (GSK3B (human)): 102%
residual activity (HIPK2 (human)): 110%
residual activity (IKBKB (human)): 100%
residual activity (IKBKE (human)): 95.6%
residual activity (KIT (human)): 99.7%
residual activity (MAP3K10 (human)): 91.9%
residual activity (MAPK9 (human)): 85%
residual activity (MAPKAPK2 (human)): 108%
residual activity (MARK4 (human)): 105%
residual activity (MERTK (human)): 102%
residual activity (MET (human)): 99.9%
residual activity (MST1R (human)): 97.2%
residual activity (NEK11 (human)): 105%
residual activity (NEK4 (human)): 97.8%
residual activity (NTRK1 (human)): 108%
residual activity (PAK1 (human)): 94.9%
residual activity (PAK2 (human)): 102%
residual activity (PAK6 (human)): 105%
residual activity (RAF1 (human)): 98.2%
residual activity (ROCK1 (human)): 94.4%
residual activity (SGK2 (human)): 99.6%
residual activity (SYK (human)): 102%
residual activity (TEK (human)): 99%
residual activity (TGFBR1 (human)): 97.7%
residual activity [1]: 99.9%
residual activity (WNK3 (human)): 114%
residual activity (ZAP70 (human)): 93.2%

Cc1ccc(S(=O)(=O)/C=C/C#N)cc1
residual activity (AKT2 (human)): 94.9%
residual activity (BRSK2 (human)): 99.4%
residual activity (CDK1 CCNA2 (human)): 96.7%
residual activity (CHUK (human)): 87.3%
residual activity (CLK4 (human)): 89.7%
residual activity (CSNK1G3 (human)): 88.3%
residual activity (CSNK2A2 (human)): 97.9%
residual activity (DAPK1 (human)): 100%
residual activity (DDR2 (human)): 96.4%
residual activity (DMPK (human)): 89%
residual activity (DYRK3 (human)): 101%
residual activity (EGFR (human)): 97.5%
residual activity (EPHA1 (human)): 93.2%
residual activity (EPHA3 (human)): 95%
residual activity (EPHB4 (human)): 102%
residual activity (GSK3B (human)): 109%
residual activity (HIPK2 (human)): 83.9%
residual activity (IKBKB (human)): 110%
residual activity (IKBKE (human)): 101%
residual activity (KIT (human)): 102%
residual activity (MAP3K10 (human)): 105%
residual activity (MAPK9 (human)): 102%
residual activity (MAPKAPK2 (human)): 93.7%
residual activity (MARK4 (human)): 99%
residual activity (MERTK (human)): 96.4%
residual activity (MET (human)): 94.7%
residual activity (MST1R (human)): 113%
residual activity (NEK11 (human)): 95.8%
residual activity (NEK4 (human)): 94.3%
residual activity (NTRK1 (human)): 90.1%
residual activity (PAK1 (human)): 89.5%
residual activity (PAK2 (human)): 102%
residual activity (PAK6 (human)): 107%
residual activity (RAF1 (human)): 104%
residual activity (ROCK1 (human)): 93.2%
residual activity (SGK2 (human)): 112%
residual activity (SYK (human)): 105%
residual activity (TEK (human)): 101%
residual activity (TGFBR1 (human)): 103%
residual activity [1]: 82.8%
residual activity (WNK3 (human)): 110%
residual activity (ZAP70 (human)): 97.5%
